This is an account of results in paper PMC11233931, “Remodeling tumor‐associated macrophage for anti‐cancer effects by rational design of irreversible inhibition of mitogen‐activated protein kinase‐activated protein kinase 2” (MedComm, 2024).

Holding throughout (test): Eurofins kinase selectivity profile against 380 other human recombinant kinases (Table S2)
Holding throughout (assay type): biochemical

In test [1] the target is T1, 380 human recombinant protein kinases (Homo sapiens, UniProt O75385).
T1 construct: purchased Eurofins (Celle Lévescault)
T1 sequence (O75385 1-1050): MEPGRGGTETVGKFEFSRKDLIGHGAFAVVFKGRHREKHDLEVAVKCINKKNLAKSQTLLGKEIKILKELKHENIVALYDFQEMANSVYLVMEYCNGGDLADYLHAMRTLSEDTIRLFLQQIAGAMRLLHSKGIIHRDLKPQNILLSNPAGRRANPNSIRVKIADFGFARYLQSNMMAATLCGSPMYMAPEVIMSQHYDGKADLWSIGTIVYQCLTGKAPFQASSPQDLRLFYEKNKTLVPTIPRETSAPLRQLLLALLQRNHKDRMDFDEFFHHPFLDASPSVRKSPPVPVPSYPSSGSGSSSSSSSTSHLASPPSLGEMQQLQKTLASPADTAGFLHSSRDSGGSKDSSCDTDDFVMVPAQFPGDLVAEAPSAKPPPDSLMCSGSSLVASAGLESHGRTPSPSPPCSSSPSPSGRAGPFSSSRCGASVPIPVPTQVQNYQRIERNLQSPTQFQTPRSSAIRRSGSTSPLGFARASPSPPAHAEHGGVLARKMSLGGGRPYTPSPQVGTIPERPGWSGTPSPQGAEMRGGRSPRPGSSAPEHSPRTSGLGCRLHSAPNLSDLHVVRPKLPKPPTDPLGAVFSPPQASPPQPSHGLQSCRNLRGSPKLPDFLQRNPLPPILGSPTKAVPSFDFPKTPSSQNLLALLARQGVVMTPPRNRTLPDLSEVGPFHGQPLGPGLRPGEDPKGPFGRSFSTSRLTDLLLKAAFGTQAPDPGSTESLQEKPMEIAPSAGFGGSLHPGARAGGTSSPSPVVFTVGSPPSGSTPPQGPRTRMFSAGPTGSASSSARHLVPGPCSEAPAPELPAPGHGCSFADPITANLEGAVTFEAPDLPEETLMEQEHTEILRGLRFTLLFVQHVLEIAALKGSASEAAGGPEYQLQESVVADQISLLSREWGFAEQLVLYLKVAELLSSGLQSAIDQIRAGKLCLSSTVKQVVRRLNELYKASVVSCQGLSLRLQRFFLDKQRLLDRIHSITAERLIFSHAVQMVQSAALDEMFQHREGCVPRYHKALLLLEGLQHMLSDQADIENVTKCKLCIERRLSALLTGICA
Particulars: ULK1(h), read-out: Inhibition rate (%). An outline of the steps: (§1)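 Commercial selectivity screen of the test compound against a panel of 380 human recombinant protein kinases, run by an outside contractor at several compound concentrations to check whether its potency was specific for MK2.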

Test [2] deals with T2, 380 human recombinant protein kinases (Homo sapiens, UniProt P00519, M351T).
T2 construct: purchased Eurofins (Celle Lévescault)
Particulars: Abl (M351T)(h), read-out: Inhibition rate. An outline of the steps: as §1

The target in test [3] is T3, 380 human recombinant protein kinases (Homo sapiens, UniProt P41743).
T3 construct: purchased Eurofins (Celle Lévescault)
T3 sequence (P41743 1-596): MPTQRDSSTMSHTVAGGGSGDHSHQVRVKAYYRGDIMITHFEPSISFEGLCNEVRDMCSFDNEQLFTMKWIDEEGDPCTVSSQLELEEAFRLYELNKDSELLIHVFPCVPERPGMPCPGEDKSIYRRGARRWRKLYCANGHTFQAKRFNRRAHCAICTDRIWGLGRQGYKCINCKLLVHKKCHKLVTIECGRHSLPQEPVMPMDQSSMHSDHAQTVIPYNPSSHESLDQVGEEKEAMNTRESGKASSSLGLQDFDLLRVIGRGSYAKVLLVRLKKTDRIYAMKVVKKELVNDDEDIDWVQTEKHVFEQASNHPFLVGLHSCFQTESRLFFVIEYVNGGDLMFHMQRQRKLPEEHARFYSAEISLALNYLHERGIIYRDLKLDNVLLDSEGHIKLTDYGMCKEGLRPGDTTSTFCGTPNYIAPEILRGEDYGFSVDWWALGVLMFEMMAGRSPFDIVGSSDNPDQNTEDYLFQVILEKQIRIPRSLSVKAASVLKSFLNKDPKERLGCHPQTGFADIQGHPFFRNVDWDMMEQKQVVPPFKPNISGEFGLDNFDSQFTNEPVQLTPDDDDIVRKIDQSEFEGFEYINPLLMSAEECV
Particulars: PKCι(h), read-out: Inhibition rate. An outline of the steps: as §1

The target of test [4] is T4, 380 human recombinant protein kinases (Homo sapiens, UniProt P42685).
T4 construct: purchased Eurofins (Celle Lévescault)
T4 sequence (P42685 whole entry): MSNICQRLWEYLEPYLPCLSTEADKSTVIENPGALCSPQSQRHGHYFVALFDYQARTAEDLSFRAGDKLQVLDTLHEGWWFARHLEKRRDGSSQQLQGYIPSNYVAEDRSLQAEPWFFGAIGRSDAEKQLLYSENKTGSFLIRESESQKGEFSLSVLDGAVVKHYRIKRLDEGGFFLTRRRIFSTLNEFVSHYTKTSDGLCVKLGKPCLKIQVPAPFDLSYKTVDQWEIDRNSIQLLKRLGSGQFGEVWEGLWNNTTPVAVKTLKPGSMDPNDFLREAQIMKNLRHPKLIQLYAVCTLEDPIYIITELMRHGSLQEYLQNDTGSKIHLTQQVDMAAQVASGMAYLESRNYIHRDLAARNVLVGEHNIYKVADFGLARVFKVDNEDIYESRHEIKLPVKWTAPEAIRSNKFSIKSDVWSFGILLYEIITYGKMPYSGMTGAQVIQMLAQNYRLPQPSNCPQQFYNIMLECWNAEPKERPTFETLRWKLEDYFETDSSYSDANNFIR
Particulars: PTK5(h), read-out: Inhibition rate. An outline of the steps: as §1

Test [5] addresses T5, 380 human recombinant protein kinases (Homo sapiens, UniProt P80192).
T5 construct: purchased Eurofins (Celle Lévescault)
Particulars: MLK1(h), read-out: Inhibition rate. An outline of the steps:
as §1

Test [6] has as its target T6, 380 human recombinant protein kinases (Homo sapiens, UniProt Q16816).
T6 construct: purchased Eurofins (Celle Lévescault)
The following applies: PhKγ1(h), read-out: Inhibition rate. The method in brief:
as §1

The target in test [7] is T7, 380 human recombinant protein kinases (Homo sapiens, UniProt Q86Y07).
T7 construct: purchased Eurofins (Celle Lévescault)
T7 sequence (Q86Y07 whole entry): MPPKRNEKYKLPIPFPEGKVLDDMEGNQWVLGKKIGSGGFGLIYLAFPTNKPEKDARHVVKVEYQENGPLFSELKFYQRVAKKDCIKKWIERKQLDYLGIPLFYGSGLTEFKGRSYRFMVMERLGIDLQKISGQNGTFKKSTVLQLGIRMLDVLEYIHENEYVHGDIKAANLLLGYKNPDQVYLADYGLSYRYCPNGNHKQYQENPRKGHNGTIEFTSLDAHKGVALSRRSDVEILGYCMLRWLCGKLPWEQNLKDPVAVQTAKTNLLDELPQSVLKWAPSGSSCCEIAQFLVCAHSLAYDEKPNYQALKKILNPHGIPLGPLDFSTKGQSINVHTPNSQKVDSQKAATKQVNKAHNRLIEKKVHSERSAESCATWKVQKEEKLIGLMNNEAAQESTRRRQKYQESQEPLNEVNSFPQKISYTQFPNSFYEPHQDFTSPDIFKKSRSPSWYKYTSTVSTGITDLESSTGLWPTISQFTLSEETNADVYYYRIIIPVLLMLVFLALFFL
Particulars: VRK2(h), read-out: Inhibition rate (%). The method in brief: as §1

The structures appear in SMILES notation.

T5 sequence (P80192 whole entry): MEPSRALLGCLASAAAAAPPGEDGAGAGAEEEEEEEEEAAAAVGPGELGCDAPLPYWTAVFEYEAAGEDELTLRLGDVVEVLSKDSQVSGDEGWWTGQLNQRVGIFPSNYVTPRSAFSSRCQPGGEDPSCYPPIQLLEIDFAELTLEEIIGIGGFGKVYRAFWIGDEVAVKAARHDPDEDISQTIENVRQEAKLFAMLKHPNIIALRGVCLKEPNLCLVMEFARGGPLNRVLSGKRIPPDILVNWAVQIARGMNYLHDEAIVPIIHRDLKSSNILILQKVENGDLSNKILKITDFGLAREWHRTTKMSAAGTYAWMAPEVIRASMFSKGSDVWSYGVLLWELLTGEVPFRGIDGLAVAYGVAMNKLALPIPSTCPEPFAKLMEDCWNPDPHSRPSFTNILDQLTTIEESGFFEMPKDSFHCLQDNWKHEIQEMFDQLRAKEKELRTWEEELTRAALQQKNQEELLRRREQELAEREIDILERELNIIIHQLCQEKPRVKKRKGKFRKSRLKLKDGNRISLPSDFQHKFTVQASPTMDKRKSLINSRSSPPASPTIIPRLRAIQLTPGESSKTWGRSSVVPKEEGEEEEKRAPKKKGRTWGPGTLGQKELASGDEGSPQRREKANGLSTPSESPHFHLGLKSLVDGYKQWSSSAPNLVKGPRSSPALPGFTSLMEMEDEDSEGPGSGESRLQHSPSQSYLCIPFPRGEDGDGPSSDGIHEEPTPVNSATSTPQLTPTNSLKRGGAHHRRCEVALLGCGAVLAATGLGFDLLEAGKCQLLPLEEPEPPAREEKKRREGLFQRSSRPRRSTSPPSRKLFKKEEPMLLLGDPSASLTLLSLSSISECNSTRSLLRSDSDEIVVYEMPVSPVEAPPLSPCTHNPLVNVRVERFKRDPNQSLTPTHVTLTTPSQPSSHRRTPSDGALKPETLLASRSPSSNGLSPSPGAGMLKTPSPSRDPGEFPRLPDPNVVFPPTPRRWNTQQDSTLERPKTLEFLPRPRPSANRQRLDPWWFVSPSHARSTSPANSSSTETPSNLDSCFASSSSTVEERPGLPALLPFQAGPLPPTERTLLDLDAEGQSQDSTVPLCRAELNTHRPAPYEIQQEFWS
T6 sequence (Q16816 whole entry): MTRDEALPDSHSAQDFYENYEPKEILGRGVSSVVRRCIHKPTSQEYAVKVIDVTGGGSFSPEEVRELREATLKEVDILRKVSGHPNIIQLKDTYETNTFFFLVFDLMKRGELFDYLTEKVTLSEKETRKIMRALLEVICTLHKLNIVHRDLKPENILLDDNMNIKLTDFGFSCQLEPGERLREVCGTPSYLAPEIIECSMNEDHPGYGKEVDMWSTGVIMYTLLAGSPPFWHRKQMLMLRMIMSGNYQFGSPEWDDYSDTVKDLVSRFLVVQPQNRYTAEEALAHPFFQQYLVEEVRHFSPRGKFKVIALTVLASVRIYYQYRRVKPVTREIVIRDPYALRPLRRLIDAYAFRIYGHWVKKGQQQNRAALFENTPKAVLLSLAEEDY

Turning to `C=CC(=O)Nc1cc(-c2cc(-c3cc4c([nH]3)CCNC4=O)ccn2)ccc1OC(F)(F)F` [compound 11], the inhibition at 0.01 µM in test [1] (10 nM) is 6%; in test [2] (10 nM), 9%; in test [3] (10 nM) it was 0%; in test [4] (10 nM), -7%; in test [5] (10 nM) it was -3%; in test [6] (10 nM), -3%. Also, the inhibition at 0.01 µM in test [7] (10 nM) is 7%. In addition, the inhibition at 0.1 µM in test [1] (100 nM) was -8%; in test [2] (100 nM) it was 2%; in test [3] (100 nM), 5%; in test [4] (100 nM), 6%; in test [5] (100 nM), 0%; in test [6] (100 nM) it was -3%. Further, the inhibition at 0.1 µM in test [7] (100 nM) was 8%. The inhibition at 1 µM was -3% in test [1] (1000 nM); 22% in test [2] (1000 nM); 8% in test [3] (1000 nM); 5% in test [4] (1000 nM); 10% in test [5] (1000 nM); 2% in test [6] (1000 nM). In addition, the inhibition at 1 µM in test [7] (1000 nM) turned out to be 7%.

By inhibition is commonly meant the change of the read-out against control, counted positive when it falls.
